{
  "source": "patent US6797255B1",
  "about": "“Methods and compositions for enhancing magnetic resonance imaging” (Mallinckrodt Inc., priority 1985, dated 2004)",
  "key": {"rabbit [1]": {"system": "rabbit", "test": "Tissue T1 and T2 relaxation times 5 min, 15 min or 1 week after 0.05 mmol/kg intravenous dose", "format": "in vivo", "conditions": "0.05 mmol/kg i.v.", "procedure": "(§1) All experiments employing the complex dihydrogen bis(N-[N′-(2,6-dimethylphenyl)carbamoylmethyl]iminodiaceto)manganese (II) trihydrate were conducted following intravenous administration to rabbits. A 10 mM solution of the complex was used in these studies. Rabbits were anesthetized with ketamine/xylazine prior to treatment. The results given were obtained with a 10 mHz RADX proton spin analyzer.\nIn another study, employing an intravenous dose of 0.05 mmol of the complex/Kg, one rabbit was killed at time points of 5 min, 15 min or 1 week after dosing. In animals killed at 5 and 15 min, heart and liver T1 and T2 relaxation times were determined with 5 and 10 mHz instruments."}, "rabbits": {"system": "rabbits", "test": "Tissue T1 and T2 relaxation times 45 min after intravenous injection (time course)", "format": "in vivo", "conditions": "for T1 relaxation time / T2 relaxation time: 45 min after 0.03 mmol/kg i.v., 10 mHz RADX", "procedure": "as §1\nA second study was performed in two rabbits killed 45 min after intravenous injection of 0.03 mmol of the complex/Kg to examine the time course of T1 and T2relaxation enhancement."}, "[2]": {"test": "Relaxation parameters T1 and T2 of a 10^−3M solution in a 90 MHz NMR experiment", "format": "physicochemical", "conditions": "10^−3M solution", "procedure": "(§2) The complex, dihydrogen bis(N-[N′-(2,6-diisopropylphenyl)carbamoylmethyl]iminodiaceto)manganese(II) hydrate, was thus isolated as the hydrated species. The solubility of the complex in water was determined to be approximately 0.1% w/v. The relaxation parameters T1 and T2 of a 10-^−3M solution of the complex in a 90 MHz NMR experiment were determined to be 0.107 sec. and 0.007 sec. respectively. The T1 and T2 values for water are 2.51 sec. and 0.150 sec., respectively.\n(§3) The relaxation parameters T1 and T2 of a 10^−3M solution of the complex in a 90 MHz NMR experiment were determined to be 126 milliseconds and 1.5 milliseconds, respectively."}, "Swiss CF-1 mice": {"system": "Swiss CF-1 mice", "test": "Acute intravenous toxicity determination", "format": "in vivo", "conditions": "for LD50: acute, intravenous, Trihydrate", "procedure": "Dihydrogen Bis(N-[N′-(2,6-dimethylphenyl)carbamoylmethyl]iminidiaceto)manganese(II) trihydrate was dissolved in 0.9% sodium chloride Inj. USP as a 1.25% solution.\nMale and female Swiss CF-1 mice with a body weight range of 17.4 to 24.2 grams were used. The mice were housed according to standard procedures and individually marked with picric acid.\nThe dose schedule was as follows:\nMeasured single doses were injected into the lateral tail vein at a rate of 1 ml/min. The animals were observed immediately after dosing and during the 7-day observation period for pharmacotoxic reactions. Recording of terminal body weights and general necropsy-of the thoracic and abdominal organs was performed after 7 days."}, "rabbit [3]": {"system": "rabbit", "test": "Bile proton T1 and T2 relaxation times over 105 min after intravenous injection", "format": "in vivo", "conditions": "0.03 mmol/kg i.v., one rabbit", "procedure": "as §1\nIn a third study, one rabbit received 0.03 mmol of the complex/kg and bile samples were collected at 5-20 min intervals over a 105 min time course and proton T1 and T2 relaxation times were determined. Control bile T1 relaxation time was 944 msec. within 1 min of injection, bile T1 was reduced to 60 msec. Over the 105 minute time course, bile T1 returned to a value of 91 msec, less than 10% of the preinjection control value. The preinjection bile T2 relaxation time was 16 msec."}, "[4]": {"test": "Solubility of the complex in water", "format": "physicochemical", "procedure": "as §2, §3"}},
  "data": [
    {"compound": "Cc1cccc(C)c1NC(=O)CN(CC(=O)[O-])CC(=O)O.Cc1cccc(C)c1NC(=O)CN(CC(=O)[O-])CC(=O)O.O.O.O.[Mn+2]", "note": "[Example 2]", "values": [
      {"measurement": "heart and liver T1 values", "setting": "rabbit [1]; killed at 5 and 15 min, 5 and 10 mHz instruments", "value": "reduced tissue T1 values at both frequencies"},
      {"measurement": "tissue T1 and T2 relaxation times", "setting": "rabbit [1]; rabbit killed at 1 week", "value": "returned to control values"},
      {"measurement": "tissue T1 relaxation times at 45 min compared with 15 min", "setting": "rabbits; 0.03 mmol/kg i.v.", "value": "decreased to the same extent as noted at 15 min"},
      {"measurement": "T1 relaxation time", "setting": "rabbits; Bladder", "value": 367, "unit": "ms"},
      {"measurement": "T2 relaxation time", "setting": "rabbits; Bladder", "value": 72, "unit": "ms"},
      {"measurement": "T1 relaxation time", "setting": "rabbits; Fat", "value": 137, "unit": "ms"},
      {"measurement": "T2 relaxation time", "setting": "rabbits; Fat", "value": 125, "unit": "ms"},
      {"measurement": "T1 relaxation time", "setting": "rabbits; Heart", "value": 265, "unit": "ms"},
      {"measurement": "T2 relaxation time", "setting": "rabbits; Heart", "value": 57, "unit": "ms"},
      {"measurement": "T1 relaxation time", "setting": "rabbits; Large Intestine", "value": 154, "unit": "ms"},
      {"measurement": "T2 relaxation time", "setting": "rabbits; Large Intestine", "value": 47, "unit": "ms"},
      {"measurement": "T1 relaxation time", "setting": "rabbits; Liver", "value": 37, "unit": "ms"},
      {"measurement": "T2 relaxation time", "setting": "rabbits; Liver", "value": 24, "unit": "ms"},
      {"measurement": "T1 relaxation time", "setting": "rabbits; Lung", "value": 438, "unit": "ms"},
      {"measurement": "T2 relaxation time", "setting": "rabbits; Lung", "value": 89, "unit": "ms"},
      {"measurement": "T1 relaxation time", "setting": "rabbits; Pancreas", "value": 117, "unit": "ms"},
      {"measurement": "T2 relaxation time", "setting": "rabbits; Pancreas", "value": 75, "unit": "ms"},
      {"measurement": "T1 relaxation time", "setting": "rabbits; Renal cortex", "value": 143, "unit": "ms"},
      {"measurement": "T2 relaxation time", "setting": "rabbits; Renal cortex", "value": 57, "unit": "ms"},
      {"measurement": "T1 relaxation time", "setting": "rabbits; Renal medulla", "value": 244, "unit": "ms"},
      {"measurement": "T2 relaxation time", "setting": "rabbits; Renal medulla", "value": 91, "unit": "ms"},
      {"measurement": "T1 relaxation time", "setting": "rabbits; Skeletal muscle", "value": 315, "unit": "ms"},
      {"measurement": "T2 relaxation time", "setting": "rabbits; Skeletal muscle", "value": 41, "unit": "ms"},
      {"measurement": "T1 relaxation time", "setting": "rabbits; Small Intestine", "value": 129, "unit": "ms"},
      {"measurement": "T2 relaxation time", "setting": "rabbits; Small Intestine", "value": 48, "unit": "ms"},
      {"measurement": "T1 relaxation time", "setting": "rabbits; Spleen", "value": 271, "unit": "ms"},
      {"measurement": "T2 relaxation time", "setting": "rabbits; Spleen", "value": 71, "unit": "ms"},
      {"measurement": "T1 relaxation time", "setting": "rabbits; Stomach", "value": 159, "unit": "ms"},
      {"measurement": "T2 relaxation time", "setting": "rabbits; Stomach", "value": 47, "unit": "ms"},
      {"measurement": "relaxation parameter T1", "setting": "[2]", "value": 126, "unit": "milliseconds"},
      {"measurement": "relaxation parameter T2", "setting": "[2]", "value": 1.5, "unit": "milliseconds"},
      {"measurement": "Body weight change", "setting": "Swiss CF-1 mice; 0.360 mmol/kg i.v., after 7 days", "value": "+1.75 g"},
      {"measurement": "Mortalities/number tested", "setting": "Swiss CF-1 mice; 0.360 mmol/kg i.v., day 1 after dosing", "value": "0/4"},
      {"measurement": "Mortalities/number tested", "setting": "Swiss CF-1 mice; 0.360 mmol/kg i.v., day 2 after dosing", "value": "0/4"},
      {"measurement": "Mortalities/number tested", "setting": "Swiss CF-1 mice; 0.360 mmol/kg i.v., day 3 after dosing", "value": "0/4"},
      {"measurement": "Mortalities/number tested", "setting": "Swiss CF-1 mice; 0.360 mmol/kg i.v., day 4 after dosing", "value": "0/4"},
      {"measurement": "Mortalities/number tested", "setting": "Swiss CF-1 mice; 0.360 mmol/kg i.v., day 5 after dosing", "value": "0/4"},
      {"measurement": "Mortalities/number tested", "setting": "Swiss CF-1 mice; 0.360 mmol/kg i.v., day 6 after dosing", "value": "0/4"},
      {"measurement": "Mortalities/number tested", "setting": "Swiss CF-1 mice; 0.360 mmol/kg i.v., day 7 after dosing", "value": "0/4"},
      {"measurement": "Mortalities/number tested", "setting": "Swiss CF-1 mice; 0.360 mmol/kg i.v., immediate", "value": "0/4"},
      {"measurement": "Body weight change", "setting": "Swiss CF-1 mice; 0.540 mmol/kg i.v., after 7 days", "value": "+2.0 g"},
      {"measurement": "Mortalities/number tested", "setting": "Swiss CF-1 mice; 0.540 mmol/kg i.v., day 1 after dosing", "value": "2/4"},
      {"measurement": "Mortalities/number tested", "setting": "Swiss CF-1 mice; 0.540 mmol/kg i.v., day 2 after dosing", "value": "2/4"},
      {"measurement": "Mortalities/number tested", "setting": "Swiss CF-1 mice; 0.540 mmol/kg i.v., day 3 after dosing", "value": "2/4"},
      {"measurement": "Mortalities/number tested", "setting": "Swiss CF-1 mice; 0.540 mmol/kg i.v., day 4 after dosing", "value": "2/4"},
      {"measurement": "Mortalities/number tested", "setting": "Swiss CF-1 mice; 0.540 mmol/kg i.v., day 5 after dosing", "value": "2/4"},
      {"measurement": "Mortalities/number tested", "setting": "Swiss CF-1 mice; 0.540 mmol/kg i.v., day 6 after dosing", "value": "2/4"},
      {"measurement": "Mortalities/number tested", "setting": "Swiss CF-1 mice; 0.540 mmol/kg i.v., day 7 after dosing", "value": "2/4"},
      {"measurement": "Mortalities/number tested", "setting": "Swiss CF-1 mice; 0.540 mmol/kg i.v., immediate", "value": "2/4"},
      {"measurement": "Body weight change", "setting": "Swiss CF-1 mice; 0.630 mmol/kg i.v., after 7 days", "value": "+1.6 g"},
      {"measurement": "Mortalities/number tested", "setting": "Swiss CF-1 mice; 0.630 mmol/kg i.v., day 1 after dosing", "value": "3/4"},
      {"measurement": "Mortalities/number tested", "setting": "Swiss CF-1 mice; 0.630 mmol/kg i.v., day 2 after dosing", "value": "3/4"},
      {"measurement": "Mortalities/number tested", "setting": "Swiss CF-1 mice; 0.630 mmol/kg i.v., day 3 after dosing", "value": "3/4"},
      {"measurement": "Mortalities/number tested", "setting": "Swiss CF-1 mice; 0.630 mmol/kg i.v., day 4 after dosing", "value": "3/4"},
      {"measurement": "Mortalities/number tested", "setting": "Swiss CF-1 mice; 0.630 mmol/kg i.v., day 5 after dosing", "value": "3/4"},
      {"measurement": "Mortalities/number tested", "setting": "Swiss CF-1 mice; 0.630 mmol/kg i.v., day 6 after dosing", "value": "3/4"},
      {"measurement": "Mortalities/number tested", "setting": "Swiss CF-1 mice; 0.630 mmol/kg i.v., day 7 after dosing", "value": "3/4"},
      {"measurement": "Mortalities/number tested", "setting": "Swiss CF-1 mice; 0.630 mmol/kg i.v., immediate", "value": "3/4"},
      {"measurement": "pharmacotoxic reactions immediately after injection", "setting": "Swiss CF-1 mice; 0.360-0.630 mmol/kg i.v., mice", "value": "Mild to severe convulsions occurred in all the animals immediately after injections"},
      {"measurement": "pharmacotoxic reactions of surviving animals", "setting": "Swiss CF-1 mice; 0.360-0.630 mmol/kg i.v., mice", "value": "mild to severe depression which was resolved within one hour after dosing"},
      {"measurement": "weight gains", "setting": "Swiss CF-1 mice; 7-day observation", "value": "normal"},
      {"measurement": "LD50", "setting": "Swiss CF-1 mice; mouse, listed as dihydrogen bis(N-[N′-(2,6-dimethylphenyl)carbamoylmethyl]-iminodiaceto)manganese", "value": "~0.5", "unit": "mmol/kg"},
      {"measurement": "LD50", "setting": "Swiss CF-1 mice; mouse, listed as dihydrogen bis(N-[N′-(2,6-dimethylphenyl)carbamoylmethyl]iminodiaceto)-manganese", "value": "approximately 0.540 mmol/kg"},
      {"measurement": "necropsy findings", "setting": "Swiss CF-1 mice; after 7 days", "value": "did not reveal any abnormalities"},
      {"measurement": "diagnostic safety ratio", "setting": "Swiss CF-1 mice; mouse i.v. LD50 vs ED50 for hepatic T1 enhancement", "value": "approximately 50"},
      {"measurement": "intravenous toxicity profile", "setting": "Swiss CF-1 mice; mouse, in vivo, iv", "value": "favorable intravenous toxicity profile"},
      {"measurement": "bile T1 relative to preinjection control value", "setting": "rabbit [3]; at 105 min", "value": "less than 10%"},
      {"measurement": "bile T2 relaxation time", "setting": "rabbit [3]; gradual increase following injection", "value": 44, "unit": "ms"},
      {"measurement": "bile T1 relaxation time", "setting": "rabbit [3]; over the 105 minute time course (end value)", "value": 91, "unit": "ms"},
      {"measurement": "bile T1 relaxation time", "setting": "rabbit [3]; within 1 min of injection", "value": 60, "unit": "ms"},
      {"measurement": "solubility of the complex in water", "setting": "[4]", "value": 2.5, "unit": "% w/v"},
      {"measurement": "solubility of the complex in water (molar)", "setting": "[4]", "value": "approximately 3.6×10^−3 M"}
    ]}
  ]
}
